Measurements as given in patent US12116371B2, “Substituted pyridines as irreversible inhibitors of menin-MLL interaction” (BIOMEA FUSION, INC., priority 2018, dated 2024).
Where two headings read alike, the source gives them in different places.

Key:
HL-60 cells [1] = assay: Cell proliferation inhibition, CellTiterGlo viability assay, 4 days (Example 102); type: cell-based; conditions: 4 days treatment
From the text: (§1) The objective of the study was to evaluate the ability of compounds of the invention, inhibitors of Menin/MLL interaction to inhibit cell proliferation. The proliferation inhibitory effect was investigated in two human MLL-leukemia cells selected on the bases of MLL fusion protein and listed in Table 1. HL-60 cell line was used as negative control (Table 3).
(§2) ATP is present in all metabolically active cells and is considered as a marker for cell viability and proliferation. The metabolic cell activity was determined using the CellTiter-Glo kit from Promega, an ATP monitoring system based on the production of luminescence by the reaction of ATP with added UltraGlo® recombinant luciferase (Kawano et al., 2016), according to the supplier's experimental recommendations.
(§3) The described assay evaluates the ability of representative compounds of invention to inhibit the cell proliferation in the human MLL-leukemia cells plus a negative control cell line.
(§4) The assay provides potency values (IC50) for each test compound at a single time point Day 4 (T4).
(§5) Seven concentrations of the NCEs (2.00E-05-6.67E-06-2.22E-06-7.41E-07-2.47E-07-8.23E-08-2.74E-08M), were assessed in duplicate in an individual test occasion in all the cell lines. MI-503 (Borkin et al., 2015) was used as reference compound and was tested at the same concentrations as the NCEs. 100% of proliferation is represented by the untreated cells (0.2% DMSO). The cell growth was monitored up to 4 days in culture.
(§6) MV4-11, MOLM-13 and HL-60 cells (see Table 2) were maintained in RPMI-1640 medium (Invitrogen, Cat. n. 618700, Batch n. 1965930) supplemented with 10% of Heat Inactivated FBS (Invitrogen, Cat n. 10500, Batch n. 08Q8078K) and 1% Pen-Strep (Invitrogen, Cat. N. 15140, Batch n. 1910859) and cultured at 37° C. in a humidified incubator with 5% CO2. All the cell lines grow in suspension and the cell density was maintained in a range of 2×10^5-1×10^6 viable cells/ml. Cells were pelleted at 130 g×5 min and conditioned medium was used to dilute the cell suspension.
(§7) Cells were plated in 96-well flat bottom microtiter plates at cell density of 15,000 cells/ml for HL-60, 1000 cells/ml for MOLM-13 and 10,000 cell/ml for MV4-11. Cells were treated with 0.2% DMSO (Sigma, D8418, batch n. SHBH4245V) or serial dilutions of compounds ([…]) in DMSO (0.2% final concentration). Cells were incubated in a 5% CO2 incubator at 37° C. for 4 days. A CellTiterGlo viability assay (Promega) was employed. Luminescence was read by using VictorV (Perkin Elmer) multilabel plate reader using the standard protocol for luminescence in 96 well plate. The experiment was performed in duplicate.
(§8) Data were expressed as % of inhibition compared to the 0.2% DMSO negative control, and was calculated as follows: % inhibition=100−[(RLU sample)×100/(RLU average controls*)]*cells containing 0.2% DMSO
(§9) CRCs were analysed by GraphPad and IC50 values were calculated by non-linear regression using 4 parameter-logistic equation. IC50 (μM) values were reported in the final data table. The curve fittings were performed leaving free all the parameters. Any constrain were reported in the results table.

MOLM-13 (MLL-AF9) cells [2] = assay: as above; type: cell-based, human; conditions: 4 days treatment
From the text: as §1, §2, §3, §4, §5, §6, §7, §8, §9

MV4-11 (MLL-AF4) cells [3] = assay: as above; type: cell-based, human; conditions: 4 days treatment
From the text: as §1, §2, §3, §4, §5, §6, §7, §8, §9

HL-60 cells [4] = assay: Long-term proliferation (LTP) assay, CellTiterGlo (Example 103); type: cell-based; conditions: for IC50: Homo sapiens
Method: (§10) The day of the experiment (TO) all the cell line suspensions were counted by Cell Viability Analyser, Vi-CELL and properly diluted with fresh medium to obtain the cell density reported in the Test System paragraph.
(§11) Cells were tested after 4 passages after thawing.
(§12) 200 μL/well and 150 μL/well of cell suspension were added into the 0.4 µL/well and 0.3 μL/well compound plates, respectively. • Cell plate containing 200 μL/well suspension was incubated at 37° C. in a humidified incubator with 5% CO2. • From each well of the 150 µL/well cell assay plate, 100 μL were harvested and transferred into a 96-well Optiplate (Perkin Elmer, Cat. n. 6005290) and cell viability was measured as described in 4.3 paragraphs (TO). • After four days in culture (T4) 150 μL/well of fresh medium were added into a new […] copy compound plate. • From each well of the 200 μL/well cell assay plate: • 100 μL were sampled for the cell viability measurement as described in 4.3 paragraphs (T4). • 50 μL were harvested and added to the 150 μL/well compound plate prepared as described in the first point to dilute 1:4 the cell suspension. • The cell assay plate diluted and containing 200 µL/well suspension were incubated at 37° C. in a humidified incubator with 5% CO2.
(§13) At T7-T11-T14 it was proceeded as described in T4, with the exception that no further cell dilution was carried out at T14.
(§14) Plates containing the samples to be tested were equilibrated at room temperature for approximately 30 min and then 30 μL/well of the Promega CellTiterGlo® reagent were added. Contents will be mixed for 5 min on an orbital shaker to induce cell lysis and then incubated at room temperature for an additional 10 min to stabilize the luminescent signal.
(§15) Luminescence was read by using VictorV (Perkin Elmer) multilabel plate reader using the standard protocol for luminescence in 96 well plate.
(§16) Data were expressed as % of inhibition compared to the 0.2% DMSO negative control, and was calculated as follows: % inhibition=100−[(RLU sample)×100/(RLU average controls*)] • *cells containing 0.2% DMSO
(§17) CRCs were analysed by GraphPad and IC50 values were calculated by non-linear regression using 4 parameter-logistic equation. IC50 (M) values were reported in the final data table.

RS4-11 (MLL-AF4) cells = assay: as above; type: cell-based; conditions: for IC50: Homo sapiens, RS4-11 (MLL-AF4), LTP assay; for effect on cell viability at T4: RS4;11, increasing concentrations
Method: as §10, §11, §12, §13, §14, §15, §16, §17

MOLM-13 (MLL-AF9) cells [5] = assay: as above; type: cell-based, human; conditions: for IC50: Homo sapiens, MOLM-13 (MLL-AF9), LTP assay
Method: as §10, §11, §12, §13, §14, §15, §16, §17

MV4-11 (MLL-AF4) cells [6] = assay: as above; type: cell-based, human; conditions: for IC50: Homo sapiens, MV4-11 (MLL-AF4), LTP assay
Method: as §10, §11, §12, §13, §14, §15, §16, §17

[7] = Homo sapiens, 96 h, read-out: IC50
[8] = Homo sapiens, 96 h, read-out: pIC50 (converted)
[9] = 96 h, Day 4, LTP assay, read-out: Day 4 IC50
[10] = 168 h, Day 7, LTP assay, read-out: Day 7 IC50
[11] = 264 h, Day 11, LTP assay, read-out: Day 11 IC50
[12] = 336 h, Day 14, LTP assay, read-out: Day 14 IC50
[13] = 96 h, Day 4, read-out: Day 4 IC50
[14] = 168 h, Day 7, read-out: Day 7 IC50
[15] = 264 h, Day 11, read-out: Day 11 IC50
[16] = 336 h, Day 14, read-out: Day 14 IC50

Structure (SMILES) | % max (HL-60 cells [1]; CellTiterGlo) [%] | % max (MOLM-13 (MLL-AF9) cells [2]) [%] | % max (MV4-11 (MLL-AF4) cells [3]) [%] | IC50 (HL-60 cells [4]; [9]) [µM] | IC50 (HL-60 cells [4]; [10]) [µM] | IC50 (HL-60 cells [4]; [11]) [µM] | IC50 (HL-60 cells [4]; [12]) [µM] | IC50 (RS4-11 (MLL-AF4) cells; [13]) [µM] | IC50 (RS4-11 (MLL-AF4) cells; [14]) [µM] | IC50 (RS4-11 (MLL-AF4) cells; [15]) [µM] | IC50 (MOLM-13 (MLL-AF9) cells [5]; [13]) [µM] | IC50 (MOLM-13 (MLL-AF9) cells [5]; [14]) [µM] | IC50 (MOLM-13 (MLL-AF9) cells [5]; [15]) [µM] | IC50 (MOLM-13 (MLL-AF9) cells [5]; [16]) [µM] | IC50 (MV4-11 (MLL-AF4) cells [6]; [13]) [µM] | IC50 (MV4-11 (MLL-AF4) cells [6]; [14]) [µM] | IC50 (MV4-11 (MLL-AF4) cells [6]; [15]) [µM] | IC50 (MV4-11 (MLL-AF4) cells [6]; [16]) [µM] | effect on cell viability at T4 (RS4-11 (MLL-AF4) cells) | further results
C=CC(=O)NC1CN(c2ccnc(NC(=O)Nc3ccc(-c4cc5c(N6CCOCC6)ncnc5[nH]4)cc3)c2)C1 [Compound 1] | 80 | 85 | 98 | 0.79 | 0.6 | 0.78 | 0.89 | 0.55 | 0.112 | > 5 | 0.83 | 0.45 | 0.5 | 0.72 | 0.76 | 0.58 | 0.55 | 0.38 |  | IC50 (HL-60 cells [1]; Homo sapiens, 96 h, CellTiterGlo, read-out: pIC50 (converted)): 0.195 µM; IC50 (HL-60 cells [1]; [7]): 0.19 µM; IC50 (MOLM-13 (MLL-AF9) cells [2]; [7]): 0.2 µM; IC50 (MOLM-13 (MLL-AF9) cells [2]; [8]): 0.2 µM; IC50 (MV4-11 (MLL-AF4) cells [3]; [7]): 0.15 µM; IC50 (MV4-11 (MLL-AF4) cells [3]; [8]): 0.151 µM
C=CC(=O)NC1CN(c2ccnc(NC(=O)Nc3ccc(-c4nc5c(N6CCOCC6)nccc5[nH]4)cc3)c2)C1 [Compound 23] |  |  |  |  |  | > 5 |  | 1.48 | 0.93 | > 5 |  |  | 1.41 | 3.89 |  | 4.37 | 1.7 | 1.23 | showed an effect | activity up to T14 (HL-60 cells [4]; up to T14): absence of activity; IC50 (MOLM-13 (MLL-AF9) cells [5]; 96 h, heading: Day 4 IC50, Day 4, read-out: Day 4 IC50): > 5 µM; IC50 (MOLM-13 (MLL-AF9) cells [5]; 168 h, heading: Day 7 IC50, Day 7, read-out: Day 7 IC50): > 5 µM; change of effect with the time in culture (MOLM-13 (MLL-AF9) cells [5]; MOLM-13, along the 14 days in culture): increase of the effect; change of effect with the time in culture (MV4-11 (MLL-AF4) cells [6]; MV4-11, along the 14 days in culture): increase of the effect
Cc1c(CN2CCC(Nc3ncnc4sc(CC(F)(F)F)cc34)CC2)ccc2c1cc(C#N)n2Cc1cn[nH]c1 [MI-503, reference compound] | 103 | 98 | 100 |  |  |  |  |  |  |  |  |  |  |  |  |  |  |  |  | pIC50 (HL-60 cells [1]; CellTiterGlo): 6.38; IC50 (HL-60 cells [1]; CellTiterGlo, read-out: IC50): 0.42 µM; pIC50 (MOLM-13 (MLL-AF9) cells [2]): 6.63; IC50 (MOLM-13 (MLL-AF9) cells [2]; read-out: IC50): 0.23 µM; pIC50 (MV4-11 (MLL-AF4) cells [3]): 6.73; IC50 (MV4-11 (MLL-AF4) cells [3]; read-out: IC50): 0.19 µM
CN(C)C/C=C/C(=O)NC1CN(c2ccnc(NC(=O)Nc3ccc(-c4cc5c(N6CCOCC6)ncnc5[nH]4)cc3)c2)C1 [Compound 15] |  |  |  | 1.15 | 0.68 | 0.85 | 0.89 | 1.45 | 1.55 | > 5 | 1.02 | 0.41 | 0.32 | 0.33 | 0.65 | 0.46 | 0.35 | 0.35 | fully inhibited | effect on cell viability at T4 (HL-60 cells [4]; T4, increasing concentrations): fully inhibited; effect on cell viability at T4 (MOLM-13 (MLL-AF9) cells [5]; MOLM-13, T4, increasing concentrations): fully inhibited; effect on cell viability at T4 (MV4-11 (MLL-AF4) cells [6]; MV4-11, T4, increasing concentrations): fully inhibited
